# What was measured:
# [1] = Parallel artificial membrane permeability assay (PAMPA); assay type: in vitro ADME; settings: 200 µM in PBS pH 7.4, 5 h at RT, read-out: permeability coefficient Pe
# Protocol: All in vitro assays used for the evaluation of Les-3331 ADME-Tox parameters were described previously. In brief, for the determination of permeability, Pre-coated PAMPA Plate System Gentest^TM was purchased from Corning (Tewksbury, MA, USA). […] PAMPA plates with compounds added to the donor wells were incubated for 5 h at RT. UPLC-MS Waters ACQUITY—TQD system with the TQ Detector (Waters, Milford, MI, USA) was used next for determination of compounds concentrations in donor and acceptor wells, which were required for calculation of permeability coefficient Pe according to formulas provided by the manufacturer.
# topoisomerase IIα = test: Flow cytometric analysis of anti-topoisomerase IIα antibody, MDA-MB-231; assay type: cell-based, human; settings: 24 h
# Protocol: To confirm the ELISA results, flow cytometric analysis of Top II activity using an anti-topoisomerase IIα antibody conjugated with phycoerythrin (PE) was performed. The Les-3331 and etoposide were used at 1 µM and 5 µM concentrations. Cancer cells were incubated for 24 h with tested compounds and the assay was carried out in accordance with the manufacturer’s protocol. Briefly, cells were centrifuged and resuspended in 4% formaldehyde. Then, cells were incubated at RT for 15 min and subsequently washed with excess PBS and centrifuged. Thereafter, ice-cold 90% methanol was added to the cells and they were incubated for 1 h in an ice bath. Next, cells were washed with excess PBS and centrifuged again. In the meantime, the primary antibody was diluted (1:100) in PBS. Then, cells were resuspended in the prepared primary antibody (100 µL) and incubated at RT, protected from light, for 1 h. Finally, cells were washed and resuspended in PBS (300 µL). The prepared samples were measured immediately. Analysis of the obtained results was performed using a flow cytometer (BD FACSCanto II, Becton Dickinson Biosciences Systems, San Jose, CA, USA) and FACSDiva software (v6.1.3, BD Biosciences Systems, San Jose, CA, USA). The equipment was calibrated with BD Cytometer Setup and Tracking Beads (BD Biosciences, San Diego, CA, USA).
# [2] = system: MDA-MB-231 human breast cancer cells; test: MTT cell viability assay, MDA-MB-231; assay type: cell-based; settings: MDA-MB-231, MTT, 24 h incubation
# Protocol: Cell culture MCF-7, MDA-MB-231 human breast cancer cells, and fibroblasts skin cells were purchased from the ATCC—American Type Culture Collection. All cell lines were maintained in DMEM (Corning, Kennebunk, ME, USA). The medium was supplemented with 10% fetal bovine serum—FBS (Eurx, Gdansk, Poland) and 1% antimicrobial substances: penicillin–streptomycin (Corning, Kennebunk, ME, USA). The incubator asserted appropriate growth conditions required for these cell lines: 5% of CO2, at 37 °C, with the humidity between 90–95%. Cells were seeded in 100 mm round dishes. An amount of 0.05% trypsin containing 0.02% EDTA (Corning, Kennebunk, ME, USA) and phosphate-buffered saline (PBS) without calcium and magnesium (Corning, Kennebunk, ME, USA) was used to detach cells from a plate once 80–90% cell confluence was achieved. In the next step, cells were reseeded in six-well plates (density—5 × 10^5 of cells per well) in 1 mL of DMEM after a 24 h incubation used in the presented tests.
# To examine the effect of Les-3331 on cell viability, the MTT assay was performed. […] The absorbance was measured using Spectrophotometer UV-VIS Helios Gamma (Unicam/ThermoFisher Scientific Inc., Waltham, MA, USA) at a wavelength of 570 nm. The obtained absorbance in untreated control cells was taken as 100%, while the survival of the cells incubated with tested compounds presented as a percentage of the control value.
# CYP2D6 = target: T1, CYP2D6 (Homo sapiens, UniProt P10635); test: Luminescent CYP2D6 P450-Glo assay; assay type: in vitro ADME; settings: at the highest dose 25 µM
# T1 construct: purchased Promega (Madison, WI, USA)
# T1 sequence (P10635 whole entry): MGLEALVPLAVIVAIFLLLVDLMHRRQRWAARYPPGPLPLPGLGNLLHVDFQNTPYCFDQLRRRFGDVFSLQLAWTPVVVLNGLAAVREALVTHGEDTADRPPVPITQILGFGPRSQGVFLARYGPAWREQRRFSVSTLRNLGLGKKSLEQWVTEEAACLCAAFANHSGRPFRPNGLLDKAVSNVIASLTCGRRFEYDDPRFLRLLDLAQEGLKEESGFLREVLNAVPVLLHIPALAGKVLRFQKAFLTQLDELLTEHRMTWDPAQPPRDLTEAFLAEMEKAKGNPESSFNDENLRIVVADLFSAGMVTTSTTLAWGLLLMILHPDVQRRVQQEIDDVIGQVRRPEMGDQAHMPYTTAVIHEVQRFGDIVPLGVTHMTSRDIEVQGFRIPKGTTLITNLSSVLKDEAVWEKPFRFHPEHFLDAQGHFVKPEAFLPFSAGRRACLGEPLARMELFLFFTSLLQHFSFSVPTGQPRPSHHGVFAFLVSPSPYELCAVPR
# Protocol: (§1) For investigation of potential drug-drug interactions, the luminescent CYP3A4 and CYP2D6 P450-Glo assays obtained from Promega® (Madison, WI, USA) were used. Les-3331 was tested in triplicate at the final concentrations from 0.01 to 25 µM according to the protocols provided by Promega®. The reference inhibitors were tested at 1 µM. The luminescent signal was measured using a microplate reader, EnSpire PerkinElmer (Waltham, MA, USA).
# LC3B = LC3B concentration in MCF-7 cell lysates (ELISA); assay type: cell-based, human; settings: 24 h, control 1.194 ng/mL
# Protocol: (§2) High sensitivity assay kits (EIAab Science Co., Ltd., Wuhan, China; Abcam plc., Cambridge, United Kingdom; Cloud-Clone Corp., Katy, TX, USA) were used to determine the concentrations of selected proteins in cell lysates […] In brief, after trypsinization, cells were washed thrice with cold PBS and centrifuged at 1000× g for 5 min at 4 °C. Then, cells (1.5 × 10^6) were suspended in lysis buffer for whole-cell lysates. After the second centrifugation, cellular supernatants were frozen immediately at −70 °C. Untreated cancer cells were taken as a control.
# (§3) The microtiter plates provided in the kits were pre-coated with an antibody specific to the analyzed antigen. The tests were carried out according to the manufacturer’s protocols.
# CYP3A4 = target: T2, CYP3A4 (Homo sapiens, UniProt P08684); test: Luminescent CYP3A4 P450-Glo assay; assay type: in vitro ADME; settings: at 10 and 25 µM
# T2 construct: purchased Promega (Madison, WI, USA)
# T2 sequence (P08684 whole entry): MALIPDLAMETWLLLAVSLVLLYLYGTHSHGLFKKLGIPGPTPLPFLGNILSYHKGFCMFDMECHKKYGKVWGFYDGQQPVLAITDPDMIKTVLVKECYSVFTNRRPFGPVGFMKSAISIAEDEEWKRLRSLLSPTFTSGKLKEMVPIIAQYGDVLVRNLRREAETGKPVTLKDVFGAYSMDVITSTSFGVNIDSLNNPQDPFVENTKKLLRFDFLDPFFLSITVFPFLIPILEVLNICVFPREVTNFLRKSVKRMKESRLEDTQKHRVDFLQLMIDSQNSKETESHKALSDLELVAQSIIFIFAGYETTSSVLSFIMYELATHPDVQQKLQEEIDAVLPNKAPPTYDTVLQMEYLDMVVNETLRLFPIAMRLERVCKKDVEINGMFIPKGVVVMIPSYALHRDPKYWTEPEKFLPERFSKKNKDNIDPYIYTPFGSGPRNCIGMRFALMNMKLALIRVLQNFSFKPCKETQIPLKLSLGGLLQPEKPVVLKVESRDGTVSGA
# Protocol: as §1
# Beclin-1 = Beclin-1 concentration in MDA-MB-231 cell lysates (ELISA); assay type: cell-based, human; settings: 24 h, control 3.605 ng/mL
# Protocol: as §2, §3
# MDA-MB-231 cells = test: Mitochondrial membrane potential analysis (JC-1), MDA-MB-231; assay type: cell-based, human; settings: 24 h
# Protocol: The JC-1 MitoScreen kit (BD Biosciences, San Diego, CA, USA) was used for the mitochondrial membrane potential (ΔΨm) analysis. The assay was performed using a flow cytometer (BD FACSCanto II, Becton Dickinson Biosciences Systems, San Jose, CA, USA). The Les-3331 and reference drug were used in 1 µM and 5 µM concentrations. After 24 h incubation with tested compounds, the assay was performed as described in the literature. Analysis of the obtained results was performed using FACSDiva software (version 6.1.3, BD Biosciences Systems, San Jose, CA, USA). The equipment was calibrated with BD Cytometer Setup and Tracking Beads (BD Biosciences, San Diego, CA, USA).
Compound,"Papp at 5 h, 200 µM [1] [×10⁻⁶ cm/s]","% of cells without anti-topoisomerase IIα antibody (topoisomerase IIα; MDA-MB-231, 1 µM) [%]","% of cells without anti-topoisomerase IIα antibody (topoisomerase IIα; MDA-MB-231, 5 µM) [%]",IC50 [2] [µM],effect on CYP2D6 activity (CYP2D6),"LC3B concentration (LC3B; MCF-7, 5 µM) [ng/mL]",effect on CYP3A4 activity (CYP3A4),"Beclin-1 concentration (Beclin-1; MDA-MB-231, 1 µM) [ng/mL]","% of cells with decreased ΔΨm (MDA-MB-231 cells; MDA-MB-231, 1 µM) [%]","% of cells with decreased ΔΨm (MDA-MB-231 cells; MDA-MB-231, 5 µM) [%]","LC3B concentration (LC3B; MCF-7, 1 µM) [ng/mL]","Beclin-1 concentration (Beclin-1; MDA-MB-231, 5 µM) [ng/mL]"
"CC(C)C(C(=O)O)N1C(=O)/C(=C/C(Cl)=C/c2ccc([N+](=O)[O-])cc2)SC1=S (stereo not shown) [Les-3331, 2-{5-[(Z,2Z)-2-chloro-3-(4-nitrophenyl)-2-propenylidene]-4-oxo-2-thioxothiazolidin-3-yl}-3-methylbutanoic acid]",0.96,5.4,30.9,15.2,slight inhibition,1.002,activated,3.007,21.8,36.3,,
"COc1cc([C@@H]2c3cc4c(cc3[C@@H](O[C@@H]3O[C@@H]5CO[C@@H](C)O[C@H]5[C@H](O)[C@H]3O)[C@H]3COC(=O)[C@H]23)OCO4)cc(OC)c1O [Etoposide, reference compound]",,7.5,9.1,> 50,,0.779,,3.442,11.4,15.6,1.157,3.004
